One molecule from patent US7989479B2, “Use of a p38 kinase inhibitor for treating psychiatric disorders” (GlaxoSmithKline LLC, priority 2006, dated 2011) can be followed below.

Assay [1] relates to LPS induced sickness behaviour. The assay is described as follows: LPS induced sickness behaviour in rats. Format: in vivo. Conditions: 20 mg/kg p.o. 1 hour before LPS (125 ug/kg i.p.), behavioural assessments 2 hours thereafter. From the text: (§1) Administration of lipopolysaccharide (LPS) to rats is known to produce not only robust measures of sickness behaviour (reduced locomotor activity, reduced intake of both food and water, decreased body weight & decreased social interest) but also large elevations of peripheral pro-inflammatory cytokines and HPA-axis markers that can mimic some of the symptoms and underlying pathobiology observed in major depressive disorder (Dunn et al., (2005). Neurosci. Behav. Rev., 29, 891-909). Indeed the injection of cytokines into man produces such neuropsychiatric disturbances in non-major depressive disorder patients (Schiepers & Maes (2005). Prog. Neuro-psychopharmacol. & Biol. Psych., 29, 201-217).
(§2) 6-(5-Cyclopropylcarbamoyl-3-fluoro-2-methyl-phenyl)-N-(2,2-dimethylpropyl)-nicotinamide was administered (p.o.) 1 hour before the administration of LPS (125 ug/kg i.p.) and then behavioural assessments were performed 2 hours thereafter. A satelite group of animals were treated in the same way and blood samples taken for biomarker analysis.

Assay [2] deals with LPS induced elevations in TNF-a, IL-6, IL-10 and ACTH levels. The assay is described as follows: LPS induced elevations of cytokines and HPA-axis markers in blood (biomarker analysis, satellite group). The assay is classed as in vivo. As to conditions: rats; 20 mg/kg p.o. 1 hour before LPS (125 ug/kg i.p.); blood samples.
Description: as §1, §2

In the case of `Cc1c(F)cc(C(=O)NC2CC2)cc1-c1ccc(C(=O)NCC(C)(C)C)cn1` [6-(5-Cyclopropylcarbamoyl-3-fluoro-2-methyl-phenyl)-N-(2,2-dimethylpropyl)-nicotinamide], the “reversal of LPS induced sickness behaviour” value in assay [1] is “significantly reversed”. Also, in assay [2], the “reduction in LPS induced elevation in ACTH level” value is on record as above 80%, the “reduction in LPS induced elevation in IL-6 level” value is above 80%, the “reduction in LPS induced elevation in IL-10 level” value is above 80% and the “reduction in LPS induced elevation in TNF-a level” value is on record as above 80%.
